Source: patent US20080064027A1, “TEL/Etv6-mediated inhibition of cell proliferation” (priority 2002, published 2008)
Entries after “also recorded” stand apart in the source; their conditions may differ.

Tests used:
Stat3 = assay: TEL-Stat3 interaction, immunoprecipitation from nuclear extracts; format: binding
Protocol: Since the TEL DNA-binding domain is not required for repression of Stat3 activity, this Example tests the possibility that TEL interacts directly with Stat3. Extracts from nuclear-enriched fractions were prepared from control or OSM-stimulated A375 cells. […] Endogenous TEL was present in Stat3 immunoprecipitates and the levels of TEL associating with Stat3 increased in OSM-treated compared to control-treated nuclear extracts. Conversely, Stat3 is present in a TEL-containing complex, pulled down through an immobilized GGM-containing oligonucleotide, which is a binding site for TEL.

[1] = tested on: Stat3 transcriptional activity; assay: Stat3 luciferase reporter assay with transfected TEL or TEL mutants; format: cell-based
Protocol: In brief, TEL- or control, pcDNA3.1-transfected Stat3ERA375 cells, treated with 4HT were cultured in the presence or absence of Trichostatin A (TSA; 250 nM), a general HDAC inhibitor, essentially as described above.
Briefly, Stat3-ER-A375 cells and HEK 293 cells were transfected with the different TEL mutants, a Stat3 reporter plasmid and a Renilla plasmid.

TEL [2] = assay: TEL protein level by Western blotting; format: cell-based; details: 4HT or 4HT/OSM treated; relative to control LacZ siRNA
Protocol: Protein analysis was carried out by Western blotting. In brief, cells were harvested in NP40 extraction buffer (50 mM Tris (pH 7.5), 1 mM EGTA, 5 mM EDTA, 120 mM NaCl, 1% NP40, 2 mM sodium orthovanadate, 50 mM sodium fluoride, 20 mM ? -glycerophosphate, 10 μg/ml leupeptin, 10 μg/ml aprotinin, and 0.5 mM phenylmethylsulfonyl fluoride) for 5 min on ice. The lysates were clarified by centrifugation and protein concentrations were determined using the Bio-Rad protein assay reagent (Bio-Rad Laboratories Gmbh, Munich, Germany). For immunoprecipitaton, equal amounts of proteins were incubated with Stat3 (C-20) from Santa Cruz Biotechnology (Santa Cruz, Calif.) for 1 hr. Following SDS-polyacrylamide gel eletrophoresis (SDS-PAGE), proteins were blotted onto polyvinylidene difluoride membranes (Boehringer Mannheim, Mannheim, Germany). After blocking with 10% horse serum (Life Technologies, Inc.) in 50 mM Tris pH 7.5, 150 mM NaCl, 0.05% Tween 20, filters were probed with specific antibodies; c-TEL, Stat3 (C-20) from Santa Cruz Biotechnology (Santa Cruz, Calif.), phospho-Stat3 (Tyr 705) from Cell Signaling Technology (Beverly, Mass.). Proteins were visualized with peroxidase-coupled secondary antibodies using the enhanced chemiluminescence detection system (Amersham Pharmacia Biotech, Little Chalfont, United Kingdom).

[3] = tested on: Stat3 transcriptional activity; assay: APRE-driven luciferase reporter assay; format: cell-based; details: for Stat3-dependent transcription of luciferase, increase over control: TEL expression reduced by siRNA
Source text: Luciferase assays are used to verify that the Stat3-ER construct is transcriptionally active. For this purpose, a luciferase reporter gene driven by the acute-phase response element (APRE) of the alpha 2-macroglobulin gene, a target for Stat1 and Stat3, was used.
Cells (2×10^6 cells/6 well dish) were transfected with a reporter plasmid containing four copies of acute phase responsible element (APRE) upstream of the minimal junB promoter linked to the luciferase gene (T Hirano, EMBO Journal, 1996, 15, 3651-3658), together with the internal control plasmid pRL-SV40 from Promega (Madison, Wis.). Twenty-four hours after the transfection, cells were either left unstimulated or stimulated with OSM (PeproTechEC, London, United Kingdom), 4-hydroxytamoxifen (4HT; Sigma, St. Louis, Mo.) or a combination of 4HT/OSM for 24 hours. The preparation of cell extracts and measurement of luciferase activities were carried out using the Dual-Luciferase reporter assay system from Promega (Madison, Wis.) in an Autolumat LB 953 (Berthold Technologies, Wildbad, Germany). Changes in firefly luciferase activity were expressed relative to Renilla luciferase activity in the same sample.

[4] = tested on: Stat3-ER-expressing A375 cells; assay: Cell proliferation after siRNA transfection; format: cell-based
Source text: This Example follows cell proliferation of Stat3-ER-expressing A375 cells treated with 4HT or a combination of 4HT and OSM, then cell proliferation in the absence or in the presence of siRNA to C/EBPd.
The following 21-mer oligoribonucleotide pairs were used:
This Example follows cell proliferation of Stat3-ER-expressing A375 cells treated with 4HT or a combination of 4HT and OSM, and in the absence or in the presence of siRNA to TEL.

[5] = target: Signal transducer and activator of transcription 3 (Stat3) (UniProt P40763); assay: cell-based or functional assay
Signal transducer and activator of transcription 3 (Stat3), sequence (P40763 2-770 limits assumed): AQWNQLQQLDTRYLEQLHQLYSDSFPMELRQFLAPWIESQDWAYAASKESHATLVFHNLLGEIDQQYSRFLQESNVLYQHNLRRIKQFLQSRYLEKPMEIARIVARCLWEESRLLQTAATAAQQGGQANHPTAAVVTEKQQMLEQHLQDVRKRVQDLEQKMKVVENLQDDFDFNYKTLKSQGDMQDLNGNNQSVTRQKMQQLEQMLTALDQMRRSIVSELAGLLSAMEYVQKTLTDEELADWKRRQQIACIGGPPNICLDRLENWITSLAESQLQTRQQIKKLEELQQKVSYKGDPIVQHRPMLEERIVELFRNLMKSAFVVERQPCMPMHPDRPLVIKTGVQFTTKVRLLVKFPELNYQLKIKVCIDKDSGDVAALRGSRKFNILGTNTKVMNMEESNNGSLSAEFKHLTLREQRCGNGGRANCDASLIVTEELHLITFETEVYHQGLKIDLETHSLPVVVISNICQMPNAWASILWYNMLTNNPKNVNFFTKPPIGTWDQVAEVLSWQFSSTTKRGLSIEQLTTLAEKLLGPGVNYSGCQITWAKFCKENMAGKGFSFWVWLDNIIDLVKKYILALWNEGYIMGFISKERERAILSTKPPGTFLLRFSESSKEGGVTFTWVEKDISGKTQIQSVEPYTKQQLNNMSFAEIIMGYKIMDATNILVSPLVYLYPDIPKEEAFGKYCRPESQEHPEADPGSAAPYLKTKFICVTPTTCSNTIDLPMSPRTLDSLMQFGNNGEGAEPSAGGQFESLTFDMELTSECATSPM

C/EBPdelta mRNA = assay: C/EBPdelta expression (quantitative PCR); format: cell-based
Protocol: A LacZ siRNA was used as control. The designed RNA oligonucleotides were ‘blasted’ against the GENBANK/EMBL databank to ensure gene specificity. The RNA oligonucleotides were obtained commercially. Transfection with expression vectors was carried out 1 day after the siRNA transfection using Effectene.

TEL [6] = assay: TEL expression in human cancer cell lines; format: cell-based
Source text: TEL is usually expressed as two protein isoforms corresponding to initiation of TEL mRNA translation at ATG codon 1 and 43 (TEL and TEL43). […] To ascertain if TEL is a natural target of Stat3, we examined its expression in human cancer cell lines in response to OSM or IL-6. […] However, TEL expression was unchanged in other cell lines, including the prostate cancer cells PC3 and LNCaP and MDA-MB-468 breast cancer cells, even though it was expected that Stat3 is activated in each of these cell lines by IL-6/OSM treatment.

TEL: ets variant gene 6 (TEL oncogene) product, overexpressed by transfection
interaction with Stat3 (Stat3): still interact with Stat3 | reduction in Stat3 activity by overexpression of TEL ([1]; in response to OSM, Stat3ER A375 cells and HEK293 cells): > 70%

CC(/C=C/C(=O)NO)=C\[C@@H](C)C(=O)c1ccc(N(C)C)cc1 [TSA, Trichostatin A, reference compound]
effect on repression of Stat3 activity by TEL ([1]; TSA 250 nM, TEL-transfected 4HT-stimulated Stat3ERA375 cells): prevented the repression of Stat3 activity by TEL | effect on Stat3 mediated transcriptional activity ([1]; TSA 250 nM, pcDNA3.1-transfected cells, 4HT): had no effects

TEL siRNA: siRNA nt 540-560, SEQ ID NO:4 and SEQ ID NO:5 (chain 1 CCCUCCCACCAUUGAACUGTT; chain 2 CAGUUCAAUGGUGGGAGGGTT; combined DNA/RNA strands, DNA positions not given here, further chemistry not given here)
TEL expression in the presence of TEL siRNA (TEL [2]): largely prevented; also recorded: strongly decreased | Stat3-dependent transcription of luciferase, increase over control ([3]; induced by 4HT): ~16 fold | Stat3-dependent transcription of luciferase, increase over control ([3]; induced by OSM): ~18 fold | anti-proliferative effects of Stat3 versus control LacZ siRNA treated cultures ([4]; 4HT and OSM treated Stat3ER A375 cells): stronger | Stat3-mediated inhibition of A375 cell proliferation in the presence of TEL siRNA ([4]; about 28% without TEL siRNA): about 40%

TEL/Etv6 (ets variant gene 6; TEL oncogene) (from UniProt P41212 1-452)
Stat3 activity (APRE luciferase reporter) in response to OSM on overexpression of TEL [5]: > 70 % reduction

C/EBPdelta siRNA: siRNA duplex nt 844-864, SEQ ID NO:2 and SEQ ID NO:3 (chain 1 GCAGCUGCCCAGCCCGCCCTT; chain 2 GGGCGGGCUGGGCAGCUGTT; combined DNA/RNA strands, DNA positions not given here, further chemistry not given here)
C/EBPdelta expression in the presence of siRNA (C/EBPdelta mRNA): significantly reduced expression | inhibition of cell proliferation in the presence of siRNA ([4]; about 40-45% with control siRNA): about 25% | reduction of the inhibition of A375 cell proliferation ([4]; average of three independent experiments, versus control siRNA): about 40%

interleukin 6 [IL-6]
cooperative effect with 4HT on luciferase activity ([3]; Stat3-ER-expressing A375 cells): same cooperative effect with 4HT | TEL expression (TEL [6]; PC3, LNCaP prostate cancer cells and MDA-MB-468 breast cancer cells): unchanged | TEL expression (TEL [6]; T47D and SKBr-3 breast cancer cells, DU145 prostate carcinoma cells, HepG2 hepatoma-derived cells): significantly increased

B1: TEL delta 442-452: TEL deletion mutant (protein)
chain: MSETPAQCSIKQERISYTPPESPVPSYASSTPLHVPVPRALRMEEDSIRLPAHLRLQPIYWSRDDVAQWLKWAENEFSLRPIDSNTFEMNGKALLLLTKEDFRYRSPHSGDVLYELLQHILKQRKPRILFSPFFHPGNSIHTQPEVILHQNHEEDNCVQRTPRPSVDNVHHNPPTIELLHRSRSPITTNHRPSPDPEQRPLRSPLDNMIRRLSPAERAQGPRPHQENNHQESYPLSVSPMENNHCPASSESHPKPSSPRQESTRVIQLMPSPIMHPLILNPRHSVDFKQSRLSEDGLHREGKPINLSHREDLAYMNHIMVSVSPPEEHAMPIGRIADCRLLWDYVYQLLSDSRYENFIRWEDKESKIFRIVDPNGLARLWGNHKNRTNMTYEKMSRALRHYYKLNIIRKEPGQRLLFRFMKTPDEIMSGRTDRLEHLESQE
repression of 4HT- or OSM-induced Stat3 transcriptional activity ([1]; Stat3-ER-A375 cells and HEK 293 cells, 24 h): is not able to repress Stat3 activity
